From article PMC11074326, “A Toxoplasma gondii O-glycosyltransferase that modulates bradyzoite cyst wall rigidity is distinct from host homologues” (Nature Communications, 2024)

Target: T1, TxgGalNAc-T3 (Toxoplasma gondii, UniProt A0A125YMZ8)
T1 construct: gene TGME49_318730; luminal region (catalytic and lectin domains), aa 74-635; secreted from Pichia pastoris SMD1168; His tag removed with TEV protease
Assay: X-ray crystal structure
Format: binding
Details: crystals with Mn2+, UDP-GalNAc-F and glycopeptide (CST1.4 or Muc5AC series), pH 9.5; active site, UDP coordinates Mn2+A; added as UDP-GalNAc-F, only UDP modelled

T1 sequence (A0A125YMZ8 entry or part of it): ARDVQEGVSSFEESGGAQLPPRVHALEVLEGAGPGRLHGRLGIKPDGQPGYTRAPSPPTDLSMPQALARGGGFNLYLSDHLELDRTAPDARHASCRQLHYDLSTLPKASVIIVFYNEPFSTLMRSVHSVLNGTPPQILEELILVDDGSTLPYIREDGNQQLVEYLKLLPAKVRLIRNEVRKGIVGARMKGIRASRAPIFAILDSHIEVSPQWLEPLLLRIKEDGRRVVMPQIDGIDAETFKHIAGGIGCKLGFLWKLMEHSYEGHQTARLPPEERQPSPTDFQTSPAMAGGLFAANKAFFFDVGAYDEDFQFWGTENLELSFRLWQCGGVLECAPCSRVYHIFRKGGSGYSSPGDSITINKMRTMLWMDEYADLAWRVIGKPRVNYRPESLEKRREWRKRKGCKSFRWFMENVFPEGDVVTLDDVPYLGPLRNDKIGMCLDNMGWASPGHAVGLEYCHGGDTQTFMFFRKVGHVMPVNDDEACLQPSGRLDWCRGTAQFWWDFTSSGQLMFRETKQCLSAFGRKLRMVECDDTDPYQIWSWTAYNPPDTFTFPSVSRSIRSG

Compound: O=c1ccn([C@@H]2O[C@H](COP(=O)(O)OP(=O)(O)O)[C@@H](O)[C@H]2O)c(=O)[nH]1 [UDP]
- X-ray crystal structure: We modeled UDP into the active site but did not include GalNAc-F
